Literature values as cited in US7122195B2, “Mutant mycobacteria for use in therapy” (priority 2000, dated 2006).

Tested on: M. tuberculosis complex

## Cc1ncc([N+](=O)[O-])n1CCO [Metronidazole]
  Activity on anaerobic grown M. tuberculosis complex: acts exclusively on anaerobic grown
  Effect on growth of aerobic grown cultures: does not affect the growth
